Assay [1] has as its system PTX-induced CIPN. The assay is described as follows: Repetitive PTX exposure, delayed 4-AP from week 6 (Example 5). Type of assay: in vivo, mice. Particulars: four cycles 35 mg/kg PTX. As to the method: To examine this question, 16 week old C7BL/6 female mice were given four cycles of PTX treatment at doses of 35 mg/kg PTX (i.p.). Animals were separated into control (saline, i.p.) or treatment group treated with a dose of 4AP 25% of that used in FIGS. 1 and 2 (i.e., 0.5 mg/kg 4-AP daily, i.p., with treatment initiated 6 weeks after the first PTX treatment and when CIPN-related changes were already apparent).

Assay [2] concerns PTX-induced CIPN. Nature of the assay: Repetitive PTX exposure, 4-AP weeks 6-12, follow-up to week 18 (Example 6). Format: in vivo, mice. Here is the method:
To examine this question, 16 week old C7BL/6 female mice were given four cycles of PTX treatment at doses of 35 mg/kg PTX (i.p.). All animals had functionally demonstrable peripheral neuropathy at six weeks. Animals were then treated with the same dose and treatment regimen of 4-AP used in FIG. 5.

The subject of assay [3] is E0771 murine breast cancer cell line. The assay is described as follows: 4-AP co-applied with paclitaxel to cancer cells in vitro (Example 10). Type of assay: cell-based. As to the method: (§1) To investigate the effects of 4-AP treatment on cancer cells, 4-AP was co-applied with either paclitaxel or cisplatin in dose response curves extending over a >20-fold range to the widely studied E0771 murine breast cancer cell line and the A549 human lung cancer cell line. Cells were exposed to paclitaxel or cisplatin for 5 days in the presence or absence of 1 mM 4-AP. This concentration of 4-AP is typically used for in vitro studies, and greatly exceeds achievable concentrations in vivo. This higher dose would increase the likelihood of detecting protective activity.

In assay [4] the test system is A549 human lung cancer cell line. Nature of the assay: 4-AP co-applied with cisplatin to cancer cells in vitro (Example 10). Format: cell-based. The settings on record: 5 days, 1 mM 4-AP. Here is the method: as §1
Another assay relates to Guillain-Barré Syndrome. Particulars: cited from earlier work.
[5] abbreviates: 0.5 mg/kg 4-AP daily started at week 6.
[6] abbreviates: 4-AP 0.5 mg/kg/day weeks 6-12, observed to week 18.
[7] abbreviates: 4-AP 0.5 mg/kg/day weeks 6-12, 12 and 18 week time points.

Consider `Nc1ccncc1` [4-AP, 4-aminopyridine], for which, in the assay with PTX-induced CIPN [1] (0.5 mg/kg 4-AP daily i.p. started at week 6), the “mechanical hypersensitivity, von Frey filament testing” value was “benefits of 4-AP treatment began to be observed at Week 12”. Also, in the assay with PTX-induced CIPN [1] (setting [5]), the “gait abnormalities, Catwalk analyses” value is “reversed PTX-induced gait abnormalities”; the “jumping behavior, cold-plate stimulus” value is “reversed the symptoms of hypersensitivity to thermal stimuli”; the “nerve conduction (latency, amplitude, velocity)” value is reported as “reversed PTX-induced abnormalities in nerve conduction”; the “structural myelin abnormalities indicative of myelin degeneration” value is “reversed PTX-induced structural myelin abnormalities”. Further, in the assay on PTX-induced CIPN [2] (4-AP 0.5 mg/kg/day weeks 6-12), the nerve conduction latency entry is on record as “reverse PTX-induced abnormalities in nerve conduction latency”. Moreover, in the assay with PTX-induced CIPN [2] (setting [6]), the “Catwalk Regularity Index” value is “benefits observed at Week 9 (i.e, after 3 weeks of 4-AP treatment) and retained for at least 6 weeks after 4-AP treatment ended”; the “durability of benefits on peripheral nerve function” value is given as “Benefits were still present six weeks after the end of treatment”; the “mechanical hypersensitivity, von Frey filament testing” value is “Benefits began to be observed at Week 12 and were maintained at Weeks 15 and 18”; the “paw lifts and jumping behavior, cold-plate stimulus” value is recorded as “durable reversal”. Also, in the assay with PTX-induced CIPN [2] (setting [7]), the G-ratio entry is “restored to normal at the 12 week time point, and these benefits are maintained at the 18 week time point”; the circularity result is “restored to normal at the 12 week time point, and these benefits are maintained at the 18 week time point”. The “protection of cancer cells from PTX” value in assay [3] (5 days exposure to PTX in vitro, concurrent 4-AP (1 mM)) is listed as “did not protect”. Besides, the “sensitivity of cancer cells to paclitaxel” value in assay [3] (5 days, 1 mM 4-AP) is “appears to even increase sensitivity to low doses of paclitaxel”. For the same compound, the “protection of cancer cells from cisplatin” value in assay [4] is listed as “does not protect”. Also, the “pain scores (McGill Pain Inventory questionnaire, visual analog scale)” value with Guillain-Barré Syndrome (4-AP vs placebo, p=0.92) is on record as “no difference”. Moreover, the nerve conduction velocity entry in the assay with Guillain-Barré Syndrome (Guillain-Barré patients) is recorded as “no clinically significant changes”.

(Values after US20260248773A1, “POTASSIUM CHANNEL BLOCKERS OR DERIVATIVES THEREOF FOR PREVENTING, ALLEVIATING, AND/OR TREATING TISSUE DYSFUNCTION CAUSED BY TOXIC INSULTS” (priority 2022, published 2026).)
